In PMC11303563 (Communications Medicine, 2024):
“And” between values parts separate entries of the source, which are not always exact repeats. Identical values can stand only once.

Experiments:
[1] = tested on: high-fat diet (HFD)-induced obesity model mice; test: Body weight of high-fat diet-induced obesity model mice; type: in vivo, C57BL/6J mice; set-up: Body weight, Mean Diff. ND vs. treated: unit not given here; conditions: for Body weight, 95.00% CI of diff. ND vs. treated / Body weight, Mean Diff. ND vs. treated: ND group as comparator; for Body weight, 95.00% CI of diff. ND vs. treated / Body weight, Mean Diff. ND vs. treated / Body weight, 95.00% CI of diff. Vehicle vs. treated / Body weight, Mean Diff. Vehicle vs. treated: Tukey's multiple comparisons test; for Body weight, Mean Diff. Vehicle vs. treated / Body weight, group mean (Fig. 3a) / Body weight, individual mice (Fig. 3a): in g (unit assumed); for Body weight, group mean (Fig. 3a) / Body weight, individual mice (Fig. 3a) / decrease of body weight compared to vehicle: HFD mice; for Body weight, group mean (Fig. 3a): n 10; for decrease of body weight compared to vehicle: 3 weeks
Method: The injection was given 6 h after light on. Food consumption and body weights were measured weekly. Food and water were provided to the animals ad libitum. The animals were treated according to the guidelines of Nagoya University, and all experimental procedures were approved by the Animal Experiment Committee of Nagoya University (A210715-003).
(§1) Epididymal adipose tissue was weighed.
(§2) Fig. 3 Effects of intraperitoneal injection of TH analogs on body weight and deposition of visceral fat. […] After three weeks of injection, body weight (a), and weight of the epididymal adipose tissue (b) were measured.

[2] = tested on: high-fat diet (HFD)-induced obesity model mice; test: Weight of epididymal adipose tissue (visceral fat) in HFD mice; type: in vivo, C57BL/6J mice; conditions: for Fig. 3b (weight of epididymal adipose tissue), group mean (Mean 2): n=10; for Fig. 3b (weight of epididymal adipose tissue), group mean (Mean 2) / Fig. 3b (weight of epididymal adipose tissue), Mean Diff. ND vs. treatment (Tukey) / Fig. 3b (weight of epididymal adipose tissue), Mean Diff. Vehicle vs. treatment (Tukey) / Epididymal adipose weight, individual mice (Fig. 3b): in mg (unit assumed); for Fig. 3b (weight of epididymal adipose tissue), Mean Diff. ND vs. treatment (Tukey): ND minus treated; for Fig. 3b (weight of epididymal adipose tissue), Mean Diff. Vehicle vs. treatment (Tukey): Vehicle minus treated
Method: as §1, §2

[3] = tested on: high-fat diet (HFD)-induced obesity model mice; test: Serum lipid analysis (total cholesterol, triglycerides) in HFD mice; type: in vivo, C57BL/6J mice; set-up: Serum TC (Fig. 4a), individual mouse values / Serum TG (Fig. 4b), individual mouse values / Serum TC (Fig. 4a), Mean Diff. ND vs. treatment (Tukey) / Serum TC (Fig. 4a), Mean Diff. Vehicle vs. treatment (Tukey) / Serum TC (Fig. 4a), group mean (Mean 2) / Mean Diff., ND vs. treated (Fig. 4b) / Mean Diff., Vehicle vs. treated (Fig. 4b) / Mean (Fig. 4b): unit not given here; conditions: for Serum TC (Fig. 4a), group mean (Mean 2) / Mean (Fig. 4b): n=10; for Serum TC (Fig. 4a), Mean Diff. ND vs. treatment (Tukey): ND minus treated; for Serum TC (Fig. 4a), Mean Diff. Vehicle vs. treatment (Tukey): Vehicle minus treated; for Mean Diff., ND vs. treated (Fig. 4b) / Mean Diff., Vehicle vs. treated (Fig. 4b): Tukey's multiple comparisons test; for Mean (Fig. 4b): group mean
Method: Fig. 4 Effects of TH analogs on the accumulation of lipids in mice. […] After 3 weeks of injection, serum and liver tissues were collected, and the amount of serum cholesterol (a), serum triglycerides (b), liver cholesterol (c), liver triglycerides (d), and liver total lipids (e) were measured.

[4] = In vitro blood-brain barrier permeability assay (BBB kit RBT-24H); type: in vitro ADME, rat
Method: Therefore, we tested BBB transparency in vitro using the BBB kit RBT-24H (PharmaCo-Cell)[35]. […] Blood-brain barrier permeability assay The blood-brain barrier (BBB) transparency of TH analogs was assessed in vitro using RBT-24H (PharmaCo-Cell)[5] according to the manufacturer 's protocol. […] After 30 min, the assay buffer in the wells mimicking the abluminal side was collected, and the concentration of the compounds was measured using liquid chromatography-mass spectrometry (LC-MS). […] These tips were preconditioned with 20 μL of acetonitrile and 20 μL of 0.1% TFA in purified water. 100 μL of the samples were loaded onto the preconditioned tips, washed with 200 μL of DW, and then eluted with 10 μL of acetonitrile. Triazine (1% vol/vol) was added to the eluent as an internal standard. […] 3 μm; Imtakt, Kyoto, Japan). All the experiments were performed using an Ultimate 3000 UHPLC system coupled with a Q Exactive Plus Orbitrap mass spectrometer (Thermo Fisher Scientific). […] Data were shown as mean ± standard deviation (n=3).

[5] = tested on: THR-regulated genes and lipid metabolism-related genes in the liver
THRα = conditions: cited from earlier work
[6] = HFD mice, 1 μmol/kg day, RT-qPCR, reference gene Rps18
[7] = liver gene expression, 1µmol dose group vs. Vehicle

For Cc1cc(OCC(=O)O)cc(C)c1Cc1ccc(O)c(C(C)C)c1 [GC-1], the “Body weight, 95.00% CI of diff. ND vs. treated” value ([1]; 0.1 µmol dose group) was -9.046 to -0.3347, the “Body weight, Mean Diff. ND vs. treated” value ([1]; 0.1 µmol dose group) was -4.69 and the “Body weight, 95.00% CI of diff. Vehicle vs. treated” value ([1]; 0.1 µmol dose group) was 5.485 to 13.92. For the same compound, the “Body weight, Mean Diff. Vehicle vs. treated” value ([1]; 0.1 µmol dose group) was 9.704, the “Body weight, 95.00% CI of diff. ND vs. treated” value ([1]; 1 µmol dose group) was -9.111 to -0.3997 and the “Body weight, Mean Diff. ND vs. treated” value ([1]; 1 µmol dose group) was -4.755. For the same compound, the “Body weight, 95.00% CI of diff. Vehicle vs. treated” value ([1]; 1 µmol dose group) was 5.420 to 13.86, the “Body weight, Mean Diff. Vehicle vs. treated” value ([1]; 1 µmol dose group) was 9.639 and the “Body weight, group mean (Fig. 3a)” value ([1]; 0.1 µmol dose group) was 33.21. For the same compound, the “Body weight, individual mice (Fig. 3a)” value ([1]; 0.1 µmol dose group) was 29.83 and 31.33 and 29.67 and 36.57 and 36.31 and 35.71 and 35.26 and 34.18 and 33.67 and 29.56, the “Body weight, group mean (Fig. 3a)” value ([1]; 1 µmol dose group) was 33.27 and the “Body weight, individual mice (Fig. 3a)” value ([1]; 1 µmol dose group) was 32.13 and 30.51 and 31.76 and 34.15 and 34.95 and 32.95 and 36.28 and 31.91 and 35.57 and 32.53. For the same compound, the “decrease of body weight compared to vehicle” value ([1]; i.p. 0.1 µmol/kg day) was ~ 20%, the “decrease of body weight compared to vehicle” value ([1]; i.p. 1 µmol/kg day) was ~ 20% and the “Fig. 3b (weight of epididymal adipose tissue), group mean (Mean 2)” value ([2]; 0.1 µmol, HFD mice) was 1486. For the same compound, the “Fig. 3b (weight of epididymal adipose tissue), Mean Diff. ND vs. treatment (Tukey)” value ([2]; 0.1 µmol) was -802.3, the “Fig. 3b (weight of epididymal adipose tissue), Mean Diff. Vehicle vs. treatment (Tukey)” value ([2]; 0.1 µmol) was 1372 and the “Fig. 3b (weight of epididymal adipose tissue), group mean (Mean 2)” value ([2]; 1 µmol, HFD mice) was 1093. The “Fig. 3b (weight of epididymal adipose tissue), Mean Diff. ND vs. treatment (Tukey)” value ([2]; 1 µmol) was -410.1, the “Fig. 3b (weight of epididymal adipose tissue), Mean Diff. Vehicle vs. treatment (Tukey)” value ([2]; 1 µmol) was 1765 and the “Epididymal adipose weight, individual mice (Fig. 3b)” value ([2]; HFD mice, 0.1 µmol dose group) was 1120.1 and 1287.3 and 1051.5 and 1562.9 and 1102.8 and 1733.2 and 1866.1 and 1900.9 and 1746.2 and 1485.7. The “Epididymal adipose weight, individual mice (Fig. 3b)” value ([2]; HFD mice, 1 µmol dose group) was 1157.5 and 882.3 and 1400.3 and 1216.9 and 1046.3 and 975.7 and 1192.5 and 1112.9 and 1063.5 and 886.8, the “weight of the epididymal adipose tissue vs vehicle” value ([2]; HFD mice, i.p., dose not given (0.1 or 1 µmol/kg day), 3 weeks) was “decreased significantly” and the “Serum TC (Fig. 4a), individual mouse values” ([3]; 0.1 µmol, HFD mice) was 76.25 and 108.417 and 114.042 and 114.792 and 113.958 and 112.208 and 91.25 and 101.875 and 101.042 and 98.458. The “Serum TG (Fig. 4b), individual mouse values” ([3]; 0.1 µmol, HFD mice) was 47.583 and 67.583 and 60.917 and 64.75 and 51.417 and 64.25 and 45.083 and 40.917 and 120.083, the “Serum TC (Fig. 4a), group mean (Mean 2)” value ([3]; 0.1 µmol, HFD mice) was 103.2 and the “Serum TC (Fig. 4a), Mean Diff. ND vs. treatment (Tukey)” value ([3]; 0.1 µmol) was 76.19. The “Serum TC (Fig. 4a), Mean Diff. Vehicle vs. treatment (Tukey)” value ([3]; 0.1 µmol) was 146.8, the “Serum TC (Fig. 4a), individual mouse values” ([3]; 1 µmol, HFD mice) was 114.667 and 103 and 123.208 and 101.042 and 100.208 and 100.542 and 101.667 and 117.708 and 116.875 and 87.208 and the “Serum TG (Fig. 4b), individual mouse values” ([3]; 1 µmol, HFD mice) was 89.25 and 100.917 and 117.583 and 93.417 and 90.917 and 81.75 and 125.917 and 105.083 and 72.583 and 61.75. The “Serum TC (Fig. 4a), group mean (Mean 2)” value ([3]; 1 µmol, HFD mice) was 106.6, the “Serum TC (Fig. 4a), Mean Diff. ND vs. treatment (Tukey)” value ([3]; 1 µmol) was 72.81 and the “Serum TC (Fig. 4a), Mean Diff. Vehicle vs. treatment (Tukey)” value ([3]; 1 µmol) was 143.5. The “Mean Diff., ND vs. treated (Fig. 4b)” value ([3]; ND minus 0.1 µmol group) was 84.09, the “Mean Diff., ND vs. treated (Fig. 4b)” value ([3]; ND minus 1 µmol group) was 52.85 and the “Mean Diff., Vehicle vs. treated (Fig. 4b)” value ([3]; Vehicle minus 0.1 µmol group) was 53.09. The “Mean Diff., Vehicle vs. treated (Fig. 4b)” value ([3]; Vehicle minus 1 µmol group) was 21.86, the “Mean (Fig. 4b)” value ([3]; 0.1 µmol, HFD mice) was 62.68 and the “Mean (Fig. 4b)” value ([3]; 1 µmol, HFD mice) was 93.92. The “serum triglyceride level vs vehicle” value ([3]; HFD mice, i.p. 0.1 µmol/kg day, 3 weeks) was “decreased”, the Abluminal concentration ([4]; 10 µM on luminal side, 30 min, mean ± standard deviation (n=3)) was 0.0966 ± 0.0234 µM and the Papp at 30 min, 10 µM ([4]; rat, 10 μM on luminal side, read-out: apparent permeability (Papp)) was 14.6 ± 3.54 ×10⁻⁶ cm/s. For the same compound, the “Dio1 expression in the liver, individual animal values” ([5]; 1µmol, one value per animal) was 3.829 and 3.919 and 5.168 and 4.354 and 3.692 and 2.159 and 3.566 and 3.314 and 5.1441 and 5.131, the “Ldlr expression in the liver, individual animal values” ([5]; 1µmol, one value per animal) was 1.223 and 2.2 and 0.6334 and 0.7002 and 0.6702 and 3.257 and 0.3372 and 1.534 and 1.675 and the “Me1 expression in the liver, individual animal values” ([5]; 1µmol, one value per animal) was 1.623 and 3.346 and 4.729 and 3.444 and 1.386 and 2.548 and 5.3983 and 2.089 and 4.684 and 5.253. The “Pnpla2 expression in the liver, individual animal values” ([5]; 1µmol, one value per animal) was 2.545 and 1.795 and 3.166 and 2.343 and 2.009 and 2.4714 and 3.073 and 2.97 and 1.253 and 2.348, the “Srebp1c expression in the liver, individual animal values” ([5]; 1µmol, one value per animal) was 0.08164 and 0.06602 and 0.1318 and 0.09978 and 0.1458 and 0.0919 and 0.4057 and 0.2719 and 0.0552 and 0.07309 and the “Thrsp expression in the liver, individual animal values” ([5]; 1µmol, one value per animal) was 1.4847 and 1.604 and 3.066 and 1.407 and 2.579 and 0.6637 and 2.019 and 1.066 and 1.315 and 1.484. For the same compound, the “liver expression of Dio1 vs vehicle” value [5, 6] was “significantly upregulated”, the “liver expression of Ldlr vs vehicle” value [5, 6] was “not significantly different” and the “liver expression of Me1 vs vehicle” value [5, 6] was “significantly upregulated”. For the same compound, the “liver expression of Pnpla2 vs vehicle” value [5, 6] was “significantly higher”, the “liver expression of Srebp1c vs vehicle” value [5, 6] was “significantly lower” and the “liver expression of Thrsp vs vehicle” value [5, 6] was “increased”. The “Pnpla2, Dunn's multiple comparisons test, Mean rank diff. (Vehicle vs. compound)” value [5, 7] was -16.8, the “Srebp1c, Dunn's multiple comparisons test, Mean rank diff. (Vehicle vs. compound)” value [5, 7] was 22.27 and the “Pnpla2, Mean rank of treatment group (Mean rank 2)” value ([5]; liver gene expression, 1µmol dose group, Vehicle mean rank 8) was 24.8. For the same compound, the “Srebp1c, Mean rank of treatment group (Mean rank 2)” value ([5]; liver gene expression, 1µmol dose group, Vehicle mean rank […]) was 11.4 and the “lower affinity for THRα than T3” value (THRα) was 10 fold.
